Our source for the T/C values is PubChem BioAssay AID328 (DTP/NCI, 2004).

In the test the test system is BDF1 mice, P388 leukemia ip, median survival T/C. Put plainly: NCI In Vivo Anticancer Drug Screen. Data for tumor model P388 Leukemia (intraperitoneal) in B6D2F1 (BDF1) mice. The following applies: endpoint: median survival time, higher = longer survival. The method in brief:
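Reported as T/C, where T is the survival measurement in dosed animals and C the same measurement in vehicle controls.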

[1] abbreviates: dose: 6.25 mg/kg/injection, schedule: Q01DX009 (ip), vehicle: saline.
Setting [2] is: dose: 12.5 mg/kg/injection, schedule: Q01DX009 (ip), vehicle: saline.
[3] abbreviates: dose: 100.0 mg/kg/injection, schedule: Q01DX009 (ip), vehicle: saline.
Setting [4] is: dose: 200.0 mg/kg/injection, schedule: Q01DX009 (ip), vehicle: saline.
[5] abbreviates: dose: 400.0 mg/kg/injection, schedule: Q01DX001 (ip), vehicle: Klucel (hydroxypropylcellulose) (HPC).
The mark [6] stands for this setting: dose: 50.0 mg/kg/injection, schedule: Q01DX009 (ip), vehicle: saline with Tween-80.
[7] abbreviates: dose: 100.0 mg/kg/injection, schedule: Q01DX009 (ip), vehicle: saline with Tween-80.
Setting [8] is: dose: 200.0 mg/kg/injection, schedule: Q01DX009 (ip), vehicle: saline with Tween-80.
Setting [9] is: dose: 100.0 mg/kg/injection, schedule: Q04DX003 (ip), vehicle: saline.
[10] abbreviates: dose: 200.0 mg/kg/injection, schedule: Q04DX003 (ip), vehicle: saline.
The mark [11] stands for this setting: dose: 400.0 mg/kg/injection, schedule: Q04DX003 (ip), vehicle: saline.
Setting [12] is: dose: 100.0 mg/kg/injection, schedule: Q04DX003 (ip), vehicle: saline with Tween-80.
Where [13] appears, read: dose: 200.0 mg/kg/injection, schedule: Q04DX003 (ip), vehicle: saline with Tween-80.
Where [14] appears, read: dose: 400.0 mg/kg/injection, schedule: Q04DX003 (ip), vehicle: saline with Tween-80.

Inconclusive results and toxic doses are left out.

As for `CN[C@@H]1[C@H](O)[C@H](NC)[C@H]2O[C@@]3(O)C(=O)C[C@@H](C)O[C@H]3O[C@@H]2[C@H]1O`, the T/C is, setting by setting: under setting [1], 95 % of control; under setting [2], 90 % of control; under setting [3], 99 % of control; under setting [4], 117 % of control; (dose: 400.0 mg/kg/injection, schedule: Q01DX009 (ip), vehicle: saline) 115 % of control.

As for `CC1c2ccccc2N(S(=O)(=O)c2ccccc2)C1C` (stereo not drawn), the T/C was 107 % of control (dose: 100.0 mg/kg/injection, schedule: Q01DX009 (ip), vehicle: gum acacia); 92 % of control (dose: 200.0 mg/kg/injection, schedule: Q01DX009 (ip), vehicle: gum acacia); 100 % of control (dose: 400.0 mg/kg/injection, schedule: Q01DX009 (ip), vehicle: gum acacia).

`O=P1(N(CCCl)CCCl)NC(OOC2CCOP(=O)(N(CCCl)CCCl)N2)CCO1` (stereo not drawn): the T/C runs as follows: (dose: 50.0 mg/kg/injection, schedule: Q01DX001 (ip), vehicle: Klucel (hydroxypropylcellulose) (HPC)) 200 % of control; (dose: 100.0 mg/kg/injection, schedule: Q01DX001 (ip), vehicle: Klucel (hydroxypropylcellulose) (HPC)) 236 % of control; (dose: 200.0 mg/kg/injection, schedule: Q01DX001 (ip), vehicle: Klucel (hydroxypropylcellulose) (HPC)) 272 % of control; under setting [5], 273 % of control.

As for `O=C(c1ccccc1)N1CC=Cc2ccccc21`, the T/C under setting [6] is 105 % of control, the T/C under setting [7] was 100 % of control and the T/C under setting [8] was 105 % of control.

`CC(CO)S(=O)(=O)C(C)(C)C` (stereo not drawn): the T/C runs as follows: under setting [9], 94 % of control; under setting [10], 95 % of control; under setting [11], 94 % of control.

Take `C/C(CCC(=O)O)=N/O`: the T/C reads like this: under setting [3], 110 % of control; under setting [9], 104 % of control; under setting [4], 120 % of control; under setting [10], 108 % of control; under setting [11], 116 % of control.

In the case of `CN(CCCOS(C)(=O)=O)CCCOS(C)(=O)=O`, the T/C was 104 % of control (dose: 2.2 mg/kg/injection, schedule: Q04DX003 (ip), vehicle: saline); 113 % of control (dose: 3.4 mg/kg/injection, schedule: Q04DX003 (ip), vehicle: saline); 150 % of control (dose: 5.0 mg/kg/injection, schedule: Q01DX010 (ip), vehicle: saline); 196 % of control (dose: 10.0 mg/kg/injection, schedule: Q01DX010 (ip), vehicle: saline); 172 % of control (dose: 19.0 mg/kg/injection, schedule: Q04DX003 (ip), vehicle: saline); 263 % of control (dose: 25.0 mg/kg/injection, schedule: Q01DX009 (ip), vehicle: saline with Tween-80). Further, the T/C was 209 % of control (dose: 29.0 mg/kg/injection, schedule: Q04DX003 (ip), vehicle: saline with Tween-80); 230 % of control (dose: 40.0 mg/kg/injection, schedule: Q01DX010 (ip), vehicle: saline); 300 % of control (dose: 66.0 mg/kg/injection, schedule: Q04DX003 (ip), vehicle: saline with Tween-80); 107 % of control (dose: 80.0 mg/kg/injection, schedule: Q01DX010 (ip), vehicle: saline); 300 % of control under setting [12]; 118 % of control under setting [9]. For the same compound, the T/C is, setting by setting: (dose: 150.0 mg/kg/injection, schedule: Q04DX003 (ip), vehicle: saline with Tween-80) 100 % of control; (dose: 150.0 mg/kg/injection, schedule: Q04DX003 (ip), vehicle: saline) 254 % of control.

Regarding `CCCCOC(=O)c1ccc(NC(=O)NCCC)cc1`, the T/C was 104 % of control under setting [12], 100 % of control under setting [13] and 109 % of control under setting [14].

Consider `c1ccc2c(c1)Sc1ccccc1N2CCCN1CCCC1`, for which the T/C reads like this: under setting [1], 104 % of control; under setting [2], 104 % of control; (dose: 25.0 mg/kg/injection, schedule: Q01DX009 (ip), vehicle: saline) 122 % of control.

Take `O=C1C=CC(=O)N1c1ccc(Br)cc1Cl`: the T/C runs as follows: (dose: 1.0 mg/kg/injection, schedule: Q04DX003 (ip), vehicle: saline) 155 % of control; (dose: 2.0 mg/kg/injection, schedule: Q04DX003 (ip), vehicle: saline) 122 % of control.

Consider `O=C(c1ccc(Cl)cc1)n1c(Cl)c(/C=N\Nc2cccc([N+](=O)[O-])c2)c2ccccc21`, for which, under setting [5], the T/C is 89 % of control.

As to `COc1cccc2c1C(=O)c1c(O)c3c(c(O)c1C2=O)CC(O)(C(=O)CO)CC3OC1CC(N)C(O)C(C)O1` (stereo not drawn), the T/C is, setting by setting: (dose: 1.73 mg/kg/injection, schedule: Q01DX004 (ip), vehicle: water) 234 % of control; (dose: 2.88 mg/kg/injection, schedule: Q01DX004 (ip), vehicle: water) 246 % of control; (dose: 4.8 mg/kg/injection, schedule: Q01DX004 (ip), vehicle: water) 283 % of control; (dose: 6.48 mg/kg/injection, schedule: Q04DX003 (ip), vehicle: saline) 158 % of control; (dose: 10.8 mg/kg/injection, schedule: Q04DX003 (ip), vehicle: saline) 169 % of control; (dose: 18.0 mg/kg/injection, schedule: Q04DX003 (ip), vehicle: saline) 187 % of control. In addition, the T/C (dose: 30.0 mg/kg/injection, schedule: Q04DX003 (ip), vehicle: saline) is 116 % of control.

For `CC(C)CCCCc1c[nH]c(=O)[nH]c1=O`, the T/C was 100 % of control under setting [12], 100 % of control under setting [13] and 100 % of control under setting [14].

As to `C/C(=C\c1ccc(OCc2ccccc2)cc1)C(=O)c1ccc(Cl)cc1`, the T/C by setting is: under setting [6], 90 % of control; under setting [7], 87 % of control; under setting [8], 92 % of control.

With `FC(F)(F)c1cccc(C=Nc2ccc(Oc3ccccc3)cc2)c1`, the T/C (dose: 50.0 mg/kg/injection, schedule: Q01DX009 (ip), vehicle: saline + alcohol) is 97 % of control; the T/C (dose: 100.0 mg/kg/injection, schedule: Q01DX009 (ip), vehicle: saline + alcohol) is 91 % of control; the T/C (dose: 200.0 mg/kg/injection, schedule: Q01DX009 (ip), vehicle: saline + alcohol) is 100 % of control.

Take `CN(C)c1ccc(C(=O)O)cn1`: the T/C reads like this: (dose: 50.0 mg/kg/injection, schedule: Q01DX009 (ip), vehicle: saline) 100 % of control; under setting [3], 101 % of control; under setting [9], 102 % of control; (dose: 200.0 mg/kg/injection, schedule: Q01DX007 (ip), vehicle: saline) 110 % of control; under setting [4], 92 % of control; under setting [10], 100 % of control. The T/C runs as follows: (dose: 300.0 mg/kg/injection, schedule: Q01DX007 (ip), vehicle: saline) 108 % of control; (dose: 400.0 mg/kg/injection, schedule: Q01DX007 (ip), vehicle: saline) 100 % of control; under setting [11], 109 % of control; (dose: 500.0 mg/kg/injection, schedule: Q01DX007 (ip), vehicle: saline) 106 % of control; (dose: 600.0 mg/kg/injection, schedule: Q01DX007 (ip), vehicle: saline) 110 % of control.

`Cc1ccc2c(C)c3ccc4ccccc4c3c[n+]2c1`: the T/C runs as follows: (dose: 20.0 mg/kg/injection, schedule: Q04DX003 (ip), vehicle: saline) 118 % of control; (dose: 40.0 mg/kg/injection, schedule: Q04DX003 (ip), vehicle: saline) 118 % of control.

Regarding `Nc1nc2nc(-c3ccccc3)nc(N)c2nc1Sc1ccc(Cl)cc1`, the T/C is, setting by setting: under setting [12], 94 % of control; under setting [13], 103 % of control; under setting [14], 103 % of control.
